tested on: HBV replication in AML12HBV10 cells; assay: Antiviral efficacy in AML12HBV10 cells (HBV DNA dot-blot hybridization); type: cell-based, Hepatitis B virus (HBV); details: Hepatitis B virus, AML12HBV10, 48 h, read-out: AML12HBV10 EC50, concentration that reduces the amount of HBV DNA by 50%, serial dilution 50 μM to 0.39 μM
Procedure: The HBV replication inhibitors of the present invention are capable of treating and preventing diseases associated with HBV infection.
The antiviral efficacy of the compounds of the disclosure, as presented in Table 1, were determined in AML12HBV10 cells. AML12HBV10 is an immortalized murine hepatocyte (AML12)-derived stable cell line that supports robust HBV replication in a tetracycline inducible manner (Xu et al.). The cells were seeded into 96 well plates at a density of 2×10^4 cells per well and cultured in DMEM/F12 media with 10% fetal bovine serum in the absence of tetracycline to allow pgRNA transcription and HBV DNA replication. One day after seeding, cells were left untreated or treated with a serial dilution of testing compounds, ranging from 50 μM to 0.39 μM, for 48 hours. Cells were then lysed by adding into each well of 100 μl lysis buffer containing 10 mM Tris-HCl (pH 7.6), 1 mM EDTA, 100 mM NaCl and 1% NP-40 and incubated at 37° C. for 30 minutes. Half amount (50 μl) of cell lysate from each well was combined with equal volume of denaturing solution containing 0.5N NaOH and 1.5M NaCl. After 5 minute incubation, 100 µl of neutralization solution (1M Tris-HCl, pH 7.4, 1.5M NaCl) was added into each well. The denatured cell lysates (totally 200 μl) were applied onto Nylon membrane using 96-well dot-blot manifold (Biorad). HBV DNA in the cell lysates were determined by dot-blot hybridization with alpha-^32P-UTP-labelled riboprobe specific for HBV minus strand DNA. The antiviral efficacy of a compound of the disclosure was expressed as the concentration that reduces the amount of HBV DNA by 50% (EC50).

Compound	EC50
O=C(Nc1ccc(O)cc1)c1scc2c1CCCC2 [Entry 1]	36 µM
O=C(Nc1ccccc1)c1scc2c1CCCC2 [Entry 2]	9 µM
O=C(Nc1ccc(F)cc1)c1scc2c1CCCC2 [Entry 3]	25 µM
COc1cccc(NC(=O)c2scc3c2CCCC3)c1 [Entry 4]	8 µM
O=C(Nc1cccc(C(F)(F)F)c1)c1scc2c1OCCO2 [Entry 5]	8.5 µM
O=C(Nc1ccccc1)c1scc2c1OCCO2 [Entry 7]	3 µM
O=C(Nc1cccc(Cl)c1)c1ccccc1 [Entry 8]	46.2 µM
O=C(Nc1cccc(I)c1)c1scc2c1OCCO2 [Entry 9]	2.8 µM
O=C(Nc1cccc(Cl)c1)c1csc2ccccc12 [Entry 11]	30 µM
O=C(Nc1cccc(Cl)c1)c1cccc(F)c1F [Entry 12]	30 µM
O=C(Nc1cccc(Cl)c1)c1ccccc1Cl [Entry 13]	12.3 µM
O=C(Nc1cccc(Cl)c1)c1cccc(Cl)c1Cl [Entry 14]	8.3 µM
O=C(Nc1cccc(Cl)c1)c1c(F)cccc1F [Entry 15]	31.2 µM
O=C(Nc1cccc(Cl)c1)c1c(Cl)cccc1Cl [Entry 16]	35.3 µM
O=C(Nc1cccc(Cl)c1)c1ccccc1F [Entry 17]	16.5 µM
O=C(Nc1cccc(Cl)c1)c1cccc2ccccc12 [Entry 18]	6.52 µM
O=C(Nc1cc(Cl)cc(Cl)c1)c1cccc2c1OCCO2 [Entry 20]	4.85 µM
O=C(Nc1ccc(F)c(F)c1)c1ccc2ccccc2c1 [Entry 21]	23.9 µM
O=C(Nc1ccc(F)c(F)c1)c1scc2c1OCCO2 [Entry 22]	< 0.4 µM
O=C(Nc1cccc(I)c1)c1ccc2ccccc2c1 [Entry 23]	19.4 µM
O=C(Nc1cccc(Cl)c1)c1cccc2c1OCO2 [Entry 24]	1.14 µM
O=C(Nc1cccc(F)c1)c1cccc2c1OCCO2 [Entry 25]	0.41 µM

Compound	EC50
O=C(Nc1ccc(F)cc1)c1cccc2c1OCCO2 [Entry 26]	0.4 µM
O=C(Nc1cccc(OC(F)(F)F)c1)c1cccc2c1OCCO2 [Entry 27]	11.2 µM
O=C(Nc1ccccc1F)c1cccc2c1OCCO2 [Entry 28]	10.8 µM
O=C(Nc1ccc(Br)cc1F)c1cccc2c1OCCO2 [Entry 29]	10.6 µM
O=C(Nc1cc(F)ccc1F)c1cccc2c1OCCO2 [Entry 30]	14.9 µM
O=C(Nc1ccc(F)c(F)c1)c1cccc2c1OCCO2 [Entry 31]	0.17 µM
O=C(Nc1ccc(F)cc1F)c1cccc2c1OCCO2 [Entry 32]	8.53 µM
O=C(Nc1ccc(F)c(F)c1)c1cccc(Cl)c1Cl [Entry 33]	1.86 µM
O=C(Nc1ccc(F)cc1F)c1cccc(Cl)c1Cl [Entry 34]	13.2 µM
O=C(Nc1ccc(Cl)c(Cl)c1)c1cccc2c1OCCO2 [Entry 35]	0.49 µM
O=C(Nc1ccc(F)cc1Cl)c1cccc2c1OCCO2 [Entry 36]	7.41 µM
O=C(Nc1ccc(Cl)cc1F)c1cccc2c1OCCO2 [Entry 37]	8.88 µM
O=C(Nc1ccc(F)c(Cl)c1)c1cccc2c1OCCO2 [Entry 38]	0.05 µM
O=C(Nc1ccc(F)c(F)c1F)c1cccc2c1OCCO2 [Entry 39]	3 µM
O=C(Nc1c(F)cc(F)cc1F)c1cccc2c1OCCO2 [Entry 40]	10.5 µM
O=C(Nc1ccc(Cl)c(F)c1)c1cccc2c1OCCO2 [Entry 41]	1.48 µM
O=C(Nc1cccc(Cl)c1)c1cccc2c1OCCCO2 [Entry 42]	2.75 µM
O=C(Nc1ccc(F)c(F)c1)c1cccc2c1OCCCO2 [Entry 43]	1.93 µM
O=C(Nc1ccc(F)c(Cl)c1)c1cccc2c1OCCCO2 [Entry 44]	1.1 µM
O=C(Nc1ccc(Cl)c(F)c1)c1cccc2c1CCCC2 [Entry 45]	1.66 µM
O=C(Nc1ccc(F)c(F)c1)c1cccc2c1CCCC2 [Entry 46]	1.48 µM

tested on: not listed separately; assay: Cytotoxicity in AML12HBV10 cells (MTT assay); type: cell-based, murine; details: mouse, concentration that reduces viability by 50%, serial dilution 50 μM to 0.39 μM
Procedure: Determination of cytotoxicity of compounds of the disclosure in AML12HBV10 cells: To determine the cytotoxicity of the compounds, AML12HBV10 cells were seeded into 96-well plates at a density of 2×10^4 cells per well and cultured in DMEM/F12 media with 10% fetal bovine serum in the absence of tetracycline to allow pgRNA transcription and HBV DNA replication. One day after seeding, cells were left untreated or treated with a serial dilution of testing compounds, ranging from 50 μM to 0.39 μM, for 48 hours. The cell viability was measured by a MTT assay, following procedure provided by the manufacturer (Promega). The cytotoxicity of a compound was expressed as the concentration of compound that reduces the viability of the cells by 50% (CC50).

Compound	CC50 at 48 h
O=C(Nc1ccc(O)cc1)c1scc2c1CCCC2 [Entry 1]	> 50 µM
O=C(Nc1ccccc1)c1scc2c1CCCC2 [Entry 2]	> 50 µM
O=C(Nc1ccc(F)cc1)c1scc2c1CCCC2 [Entry 3]	> 50 µM
COc1cccc(NC(=O)c2scc3c2CCCC3)c1 [Entry 4]	> 50 µM
O=C(Nc1cccc(C(F)(F)F)c1)c1scc2c1OCCO2 [Entry 5]	> 50 µM
O=C(Nc1ccccc1)c1scc2c1OCCO2 [Entry 7]	> 50 µM
O=C(Nc1cccc(Cl)c1)c1ccccc1 [Entry 8]	> 50 µM
O=C(Nc1cccc(I)c1)c1scc2c1OCCO2 [Entry 9]	> 50 µM
O=C(Nc1cccc(Cl)c1)c1csc2ccccc12 [Entry 11]	> 50 µM
O=C(Nc1cccc(Cl)c1)c1cccc(F)c1F [Entry 12]	> 50 µM
O=C(Nc1cccc(Cl)c1)c1ccccc1Cl [Entry 13]	> 50 µM
O=C(Nc1cccc(Cl)c1)c1cccc(Cl)c1Cl [Entry 14]	> 50 µM
O=C(Nc1cccc(Cl)c1)c1c(F)cccc1F [Entry 15]	> 50 µM
O=C(Nc1cccc(Cl)c1)c1c(Cl)cccc1Cl [Entry 16]	> 50 µM
O=C(Nc1cccc(Cl)c1)c1ccccc1F [Entry 17]	> 50 µM
O=C(Nc1cccc(Cl)c1)c1cccc2ccccc12 [Entry 18]	> 50 µM
O=C(Nc1cc(Cl)cc(Cl)c1)c1cccc2c1OCCO2 [Entry 20]	> 50 µM
O=C(Nc1ccc(F)c(F)c1)c1ccc2ccccc2c1 [Entry 21]	> 50 µM
O=C(Nc1ccc(F)c(F)c1)c1scc2c1OCCO2 [Entry 22]	> 50 µM
O=C(Nc1cccc(I)c1)c1ccc2ccccc2c1 [Entry 23]	> 50 µM
O=C(Nc1cccc(Cl)c1)c1cccc2c1OCO2 [Entry 24]	> 10 µM
O=C(Nc1cccc(F)c1)c1cccc2c1OCCO2 [Entry 25]	> 10 µM

Compound	CC50 at 48 h
O=C(Nc1ccc(F)cc1)c1cccc2c1OCCO2 [Entry 26]	> 10 µM
O=C(Nc1cccc(OC(F)(F)F)c1)c1cccc2c1OCCO2 [Entry 27]	> 10 µM
O=C(Nc1ccccc1F)c1cccc2c1OCCO2 [Entry 28]	> 10 µM
O=C(Nc1ccc(Br)cc1F)c1cccc2c1OCCO2 [Entry 29]	> 10 µM
O=C(Nc1cc(F)ccc1F)c1cccc2c1OCCO2 [Entry 30]	> 10 µM
O=C(Nc1ccc(F)c(F)c1)c1cccc2c1OCCO2 [Entry 31]	> 10 µM
O=C(Nc1ccc(F)cc1F)c1cccc2c1OCCO2 [Entry 32]	> 10 µM
O=C(Nc1ccc(F)c(F)c1)c1cccc(Cl)c1Cl [Entry 33]	> 10 µM
O=C(Nc1ccc(F)cc1F)c1cccc(Cl)c1Cl [Entry 34]	> 10 µM
O=C(Nc1ccc(Cl)c(Cl)c1)c1cccc2c1OCCO2 [Entry 35]	> 10 µM
O=C(Nc1ccc(F)cc1Cl)c1cccc2c1OCCO2 [Entry 36]	> 10 µM
O=C(Nc1ccc(Cl)cc1F)c1cccc2c1OCCO2 [Entry 37]	> 10 µM
O=C(Nc1ccc(F)c(Cl)c1)c1cccc2c1OCCO2 [Entry 38]	> 10 µM
O=C(Nc1ccc(F)c(F)c1F)c1cccc2c1OCCO2 [Entry 39]	> 10 µM
O=C(Nc1c(F)cc(F)cc1F)c1cccc2c1OCCO2 [Entry 40]	> 10 µM
O=C(Nc1ccc(Cl)c(F)c1)c1cccc2c1OCCO2 [Entry 41]	> 25 µM
O=C(Nc1cccc(Cl)c1)c1cccc2c1OCCCO2 [Entry 42]	> 25 µM
O=C(Nc1ccc(F)c(F)c1)c1cccc2c1OCCCO2 [Entry 43]	> 25 µM
O=C(Nc1ccc(F)c(Cl)c1)c1cccc2c1OCCCO2 [Entry 44]	> 25 µM
O=C(Nc1ccc(Cl)c(F)c1)c1cccc2c1CCCC2 [Entry 45]	> 25 µM
O=C(Nc1ccc(F)c(F)c1)c1cccc2c1CCCC2 [Entry 46]	> 25 µM

tested on: HBV replication in HepDES19 cells; assay: Antiviral activity in HepDES19 cells (core-associated HBV DNA, Southern blot); type: cell-based, Hepatitis B virus (HBV); details: Hepatitis B virus, HepDES19, 144 h, concentration that reduces core-associated HBV DNA by 50%; 6 days; serial dilution 10 μM to 0.018 μM
Source text: Determination of antiviral activity of compounds of the disclosure, as presented in Table 1, in human hepatoma-derived cell lines: To further confirm the antiviral activity of the compounds of the disclosure against HBV in human hepatocyte-derived cells, HepDES19 cells, a human hepatoma cell line supporting HBV replication in a tetracycline inducible manner (Guo et al., 2007), seeded into 12-well plates at a density of 5×10^5 cells per well and cultured in DMEM/F12 media with 10% fetal bovine serum and 1 μg/ml tetracycline. Two days after seeding, the cells were mock-treated or treated with a serial dilution of compounds of the disclosure, ranging from 10 μM to 0.018 μM, for 6 days in the absence of tetracycline. Upon the completion of treatment, cells were lysed by adding into each well of the 12-well plates 0.5 ml of lysis buffer containing 10 mM Tris-HCl (pH 8.0), 1 mM EDTA, 1% NP40 and 2% sucrose and incubating at 37° C. for 10 minutes. Cell debris and nuclei were removed by centrifugation and the supernatant was mixed with 130 μl of 35% polyethylene glycol (PEG) 8000 containing 1.5 M NaCl. After 1 hour incubation in ice, viral nucleocapsids were pelleted by centrifugation at 6,000×g for 5 min at 4° C., followed by 1 hour digestion at 37° C. in 400 μl of digestion buffer containing 0.5 mg/ml pronase (Calbiochem), 0.5% SDS, 150 mM NaCl, 25 mM Tris-HCl (pH 8.0) and 10 mM EDTA. The digestion mixture was extracted twice with phenol and DNA was precipitated with ethanol, dissolved in TE buffer (10 mM Tris-HCl, pH 8.0; 0.1 mM EDTA). One half of the DNA sample from each well was resolved by electrophoresis into a 1.5% agarose gel. The gel was then subjected to denaturation in a solution containing 0.5 M NaOH and 1.5 M NaCl, followed by neutralization in a buffer containing 1 M Tris-HCl (pH7.4) and 1.5 M NaCl. DNA was then blotted onto Hybond-XL membrane (GE Health care) in 20×SSC buffer. The amounts of cytoplasmic HBV core-associated HBV DNA were determined by Southern blot hybridization and the antiviral efficacy of a compound was expressed as its concentration that reduce the amount of HBV DNA by 50% (EC50) or 90% (EC90).

Compound	EC50
O=C(Nc1cccc(Cl)c1)c1cccc(Cl)c1Cl [Entry 14]	22.2 µM
O=C(Nc1cccc(Cl)c1)c1cccc2ccccc12 [Entry 18]	4.2 µM

same assay, conditions: concentration that reduces core-associated HBV DNA by 50%; 6 days; serial dilution 10 μM to 0.018 μM

Compound	EC50
O=C(Nc1ccccc1)c1scc2c1OCCO2 [Entry 7]	3 µM

— US20190092720A1, “FUNCTIONALIZED BENZAMIDE DERIVATIVES AS ANTIVIRAL AGENTS AGAINST HBV INFECTION” (BARUCH S. BLUMBERG INSTITUTE, priority 2012, published 2019)
